Here are results for 9 molecules from US20260256762A1, “Aromatic Amide Derivative, And Preparation Method Therefor And Medical Use Thereof” (ZHEJIANG HISUN PHARMACEUTICAL CO., LTD., priority 2023, published 2026).

One data set deals with OVCAR-3 cells. Nature of the data set: Inhibition of proliferation of OVCAR-3 cells (CellTiter-Glo). It is filed as cell-based. The settings on record: Homo sapiens, OVCAR-3 cells (TP53 R248Q mutation), 72 hours, read-out: IC50 inhibiting the proliferation of OVCAR-3 cells. How it is done:
The following method was used to determine the effect of the compound of the present invention on the proliferation of OVCAR-3 cells. OVCAR-3 cells (comprising TP53 R248Q mutation) were purchased from the Cell Resource Center of Shanghai Institute of Life Sciences, Chinese Academy of Sciences, and cultured in a RPMI 1640 medium comprising10% fetal bovine serum, 100 U penicillin and 100 μg/mL streptomycin. Cell viability was determined by Cell Titer-Glo® Luminescent Cell Viability Assay Kit (Promega, article No. G7573).
(§1) An experimental method was carried out according to steps provided in the kit manual, with details as follows: firstly, a test compound was dissolved in DMSO to prepare a 10 mM storage solution, and then diluted with a culture medium to prepare a test sample. A final concentration of the compound ranged from 1000 nM to 0.015 nM. Cells in a logarithmic growth phase were inoculated into a 96-mesh cell culture plate at a density of 1000 cells per mesh, cultured overnight in a 5% CO2 incubator at 37° C., and then cultured for 72 hours after adding the test compound. After completion of cultivation, 50 uL CellTiter-Glo detection solution was added into each mesh, shook for 5 minutes, and stood for 10 minutes, and then a luminous value of each mesh of the sample was read by a microplate reader using Luminescence mode. Compared with the numerical value of a control group (0.3% DMSO), a percentage inhibition rate of the compound at each concentration point was calculated, and then an IC50 value of the compound inhibiting cell proliferation was obtained by a nonlinear regression analysis with a logarithmic-inhibition rate of the compound concentration in a GraphPad Prism 5 software, as shown in Table 1.
A general note: Cellular ATP, detected with luciferase, serves as a proxy for viable cell number.

For another data set, the system named is HT-29 cells. Nature of the data set: Inhibition of proliferation of HT-29 cells (CellTiter-Glo). In kind it is cell-based. As to conditions: Homo sapiens, HT-29 cells (TP53 R273H mutation), 120 hours, read-out: IC50 inhibiting the proliferation of HT-29 cells. How it is done:
The following method was used to determine the effect of the compound of the present invention on the proliferation of HT-29 cells. HT-29 cells (comprising TP53 R273H mutation) were purchased from the Cell Resource Center of Shanghai Institute of Life Sciences, Chinese Academy of Sciences, and cultured in a McCOY's 5A medium comprising 10% fetal bovine serum, 100 U penicillin and 100 μg/mL streptomycin. Cell viability was determined by Cell Titer-Glo® Luminescent Cell Viability Assay Kit (Promega, article No. G7573).
as §1, with “per mesh, and cultured overnight” for “per mesh, cultured overnight”, “cultured for 120 hours after” for “cultured for 72 hours after”, “Compared with a numerical value” for “Compared with the numerical value”, “in Table 2.” for “in Table 1.”

The target in data set [1] is T1, recombinant human KIF18A enzyme (Homo sapiens, UniProt Q8NI77).
T1 construct: purchased Genscript
T1 sequence (Q8NI77 whole entry): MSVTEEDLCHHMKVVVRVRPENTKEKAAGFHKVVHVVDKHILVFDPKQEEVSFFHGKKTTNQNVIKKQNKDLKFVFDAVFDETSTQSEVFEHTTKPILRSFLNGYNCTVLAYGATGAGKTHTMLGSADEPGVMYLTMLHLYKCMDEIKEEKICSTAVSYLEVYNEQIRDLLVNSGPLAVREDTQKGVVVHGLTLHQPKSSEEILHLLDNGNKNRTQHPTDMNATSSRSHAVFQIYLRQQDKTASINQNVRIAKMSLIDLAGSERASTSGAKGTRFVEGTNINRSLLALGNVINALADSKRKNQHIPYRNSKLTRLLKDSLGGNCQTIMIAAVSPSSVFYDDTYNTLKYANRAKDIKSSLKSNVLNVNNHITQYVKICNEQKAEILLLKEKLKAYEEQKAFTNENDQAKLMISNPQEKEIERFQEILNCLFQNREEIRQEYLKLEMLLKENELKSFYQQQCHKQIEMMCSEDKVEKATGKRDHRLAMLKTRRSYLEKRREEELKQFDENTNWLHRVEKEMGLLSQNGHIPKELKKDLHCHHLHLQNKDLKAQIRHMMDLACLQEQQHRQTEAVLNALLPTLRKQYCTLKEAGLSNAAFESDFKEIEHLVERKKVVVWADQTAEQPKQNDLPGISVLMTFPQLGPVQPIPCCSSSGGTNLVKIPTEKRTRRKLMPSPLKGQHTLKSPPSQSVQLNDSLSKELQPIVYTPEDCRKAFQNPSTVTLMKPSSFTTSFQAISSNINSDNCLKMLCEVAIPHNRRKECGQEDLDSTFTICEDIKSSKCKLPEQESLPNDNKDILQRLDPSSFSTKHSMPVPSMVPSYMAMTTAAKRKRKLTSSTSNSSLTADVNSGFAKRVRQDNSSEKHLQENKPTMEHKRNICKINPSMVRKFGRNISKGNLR
T1 sequence (P68363 whole entry partner): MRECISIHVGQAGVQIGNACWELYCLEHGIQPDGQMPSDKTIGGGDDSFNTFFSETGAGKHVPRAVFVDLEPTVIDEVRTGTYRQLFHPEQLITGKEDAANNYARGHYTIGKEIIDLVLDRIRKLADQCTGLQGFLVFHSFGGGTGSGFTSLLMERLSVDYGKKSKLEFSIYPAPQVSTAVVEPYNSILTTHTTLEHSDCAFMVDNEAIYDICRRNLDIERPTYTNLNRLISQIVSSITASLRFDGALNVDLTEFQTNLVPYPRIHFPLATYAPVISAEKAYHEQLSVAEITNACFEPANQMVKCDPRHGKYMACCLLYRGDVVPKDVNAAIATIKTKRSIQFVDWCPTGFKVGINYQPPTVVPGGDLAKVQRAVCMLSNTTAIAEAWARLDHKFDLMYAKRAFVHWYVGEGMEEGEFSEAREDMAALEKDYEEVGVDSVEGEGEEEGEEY
T1 sequence (P07437 whole entry partner): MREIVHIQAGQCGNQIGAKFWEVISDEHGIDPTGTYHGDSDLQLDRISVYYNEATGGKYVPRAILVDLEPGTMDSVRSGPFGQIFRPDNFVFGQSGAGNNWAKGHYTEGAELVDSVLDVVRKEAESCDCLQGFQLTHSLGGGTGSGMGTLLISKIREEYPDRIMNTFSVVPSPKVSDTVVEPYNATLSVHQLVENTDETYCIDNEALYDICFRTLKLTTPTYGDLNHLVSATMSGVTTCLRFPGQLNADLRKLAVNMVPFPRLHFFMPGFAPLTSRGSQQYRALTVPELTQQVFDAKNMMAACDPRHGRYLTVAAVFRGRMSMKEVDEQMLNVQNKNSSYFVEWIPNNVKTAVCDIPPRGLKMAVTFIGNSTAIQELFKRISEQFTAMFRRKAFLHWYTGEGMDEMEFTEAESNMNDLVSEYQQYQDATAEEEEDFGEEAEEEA
Nature of the data set: Inhibition of KIF18A enzyme activity (ADP-Glo). In kind it is biochemical. The settings on record: recombinant human KIF18A protein 100 nM, ATP 60 uM, read-out: IC50 inhibiting KIF18A enzyme activity. As for the experimental part:
The following method was used to determine a degree of inhibition of the compound of the present invention on the activity of recombinant human KIF18A enzyme in vitro. The method used ADP-Glo™ Kinase Assay kit (article No. V9102) of Promega Company. For detailed experimental operation, please refer to the kit instructions.
Firstly, the compound and recombinant human KIF18A protein (final concentration of 100 nM, entrusted to Genscript for expression) were added into the mesh, and incubated at room temperature for 20 minutes. Then, ATP solution (component V915A from ADP-Glo™ Kinase Assay kit, final concentration of 60 uM) was added to the reaction solution, and the mixture was incubated at room temperature for 20 minutes. Subsequently, 5 μL ADP-Glo Reagent was added to the reaction system and the obtained system was incubated at troom temperature for 50 minutes. After that, 10 μL of Kinase Detection Reagent was added to the reaction system and the obtained system was incubated at room temperature for 30 minutes. After the completion of incubation, a chemiluminescence intensity value of each mesh was measured by a microplate reader using Luminescence mode.

Data set [2] is described as follows: Pharmacokinetic test in mice after gavage administration. It is filed as in vivo. The settings on record: ICR mice, male, Oral (10 mg/mL), plasma. How it is done: Control Compound AMG650, Compound 9;
ICR mice, male, 27.3-30.3 g, purchased from Charles River Experimental Animal Technology Co., Ltd.
A proper amount of pharmaceutical compound was weighed, a proper amount of DMA, CrEL and 5% GS were added in turn, then the system was mixed evenly by ultrasonic vortex to prepare a 1 mg/mL drug administration preparation, wherein DMA, CrEL and 5% GS=10:10:80 (v:v:v).
ICR mice, each compound injection group (9 mice in each group) to be determined, were fasted overnight, fed was given 4 hours after gavage administration (PO, the dosage of the compound was 10 mg/kg, the dosage volume was 10 mL/kg).
About 0.1 mL blood was collected from orbits 0.25 hours, 0.5 hours, 1 hour, 2 hours, 4 hours, 8 hours, 10 hours and 24 hours […] after drug administration, and a whole blood sample was placed in an anticoagulant tube including EDTA-K2. Blood samples were collected and then placed on ice, and plasma was separated by centrifugation (centrifugation condition: 1500 g, 10 minutes). The collected plasma was stored at −40° C. to −20° C. before analysis.
LC-MS/MS was used to determine the content of compounds to be tested in plasma of mice after gavage administration.

Turning to `CCS(=O)(=O)Nc1ccc(C(=O)Nc2ccc(OC)c(N3CCOCC3)c2)c(N2CCC3(CC2)CC3)c1` [Example 10, 4-(ethylsulfonamido)-N-(4-methoxy-3-morpholinophenyl)-2-(6-azaspiro[2.5]octan-6-yl)benzamide], the values for the IC50 in the data set on OVCAR-3 cells and in the data set on HT-29 cells were 7.5 nM and 42.8 nM, respectively.

Take `CCS(=O)(=O)Nc1ccc(C(=O)Nc2ccc(C#N)c(N3CCC(F)(F)CC3)c2)c(N2CCC3(CC2)CC3)c1` [Example 8, N-(4-cyano-3-(4,4-difluoropiperidin-1-yl)phenyl)-4-(ethylsulfonamido)-2-(6-azaspiro[2.5]octan-6-yl) benzamide]: the IC50 turned out to be 17.4 nM in the data set with OVCAR-3 cells, 14.5 nM with HT-29 cells and 97.8 nM in data set [1].

As to `COc1ccc(NC(=O)c2ccc(NS(=O)(=O)CCO)cc2N2CCC3(CC2)CC3)cc1N1CCC(F)(F)CC1` [Example 6, N-(3-(4,4-difluoropiperidin-1-yl)-4-methoxyphenyl)-4-((2-hydroxyethyl)sulfonamido)-2-(6-azaspiro[2.5]octan-6-yl)benzamide], the IC50 with OVCAR-3 cells is 1.5 nM; in the data set on HT-29 cells, 3.2 nM.

In the case of `N#Cc1ccc(NC(=O)c2ccc(NS(=O)(=O)CCO)cc2N2CCC3(CC2)CC3)cc1N1CCC(F)(F)CC1` [Example 7, N-(4-cyano-3-(4,4-difluoropiperidin-1-yl)phenyl)-4-((2-hydroxyethyl)sulfonamido)-2-(6-azaspiro[2.5]octan-6-yl)benzamide], the IC50 in the data set on OVCAR-3 cells is 1.9 nM; in the data set on HT-29 cells, 52.4 nM; in data set [1] it was 177 nM.

`CCS(=O)(=O)Nc1ccc(C(=O)Nc2ccc(OC(F)(F)F)c(N3CCC(F)(F)CC3)c2)c(N2CCC3(CC2)CC3)c1` [Example 13, N-(3-(4,4-difluoropiperidin-1-yl)-4-(trifluoromethoxy)phenyl)-4-(ethylsulfonamido)-2-(6-azaspiro[2.5]octan-6-yl)benzamide]: the IC50 in data set [1] amounted to 137 nM.

The half-life is the time in which the quantity being followed falls by half. With `CCS(=O)(=O)Nc1ccc(C(=O)Nc2ccc(OC)c(N3CCC(F)(F)CC3)c2)c(N2CCC3(CC2)CC3)c1` [Example 9, N-(3-(4,4-difluoropiperidin-1-yl)-4-methoxyphenyl)-4-(ethylsulfonamido)-2-(6-azaspiro[2.5]octan-6-yl) benzamide], the IC50 turned out to be 1.5 nM in the data set with OVCAR-3 cells and 3.3 nM in the data set on HT-29 cells. In data set [2] (mouse, 10 mg/kg, read-out: Blood concentration Cmax), the Cmax was 5270 ng/mL. Further, the AUC(0-inf) in data set [2] (mouse, 10 mg/kg, read-out: Curve area AUC0-∞) came out at 52200 ng·h/mL. For the same molecule, the half-life in data set [2] (mouse, 10 mg/kg, read-out: Half-life period T½ (converted)) was 5.9 h.

With `Cc1cc(NC(=O)c2ccc(NS(=O)(=O)CCO)cc2N2CCC3(CC2)CC3)nc(N2CCC(F)(F)CC2)n1` [AMG 650, reference compound], in data set [2], the “Blood concentration Cmax” value is 3050 ng/mL, the “Curve area AUC0-∞” value was 52500 ng·h/mL and the “Half-life period T½” value worked out at 9.64 h.

Regarding `CCS(=O)(=O)Nc1ccc(C(=O)Nc2ccc(OC)c(CN3CC(F)(F)C3)c2)c(N2CCC3(CC2)CC3)c1` [Example 11, N-(3-((3,3-difluoroazetidin-1-yl)methyl)-4-methoxyphenyl)-4-(ethylsulfonamido)-2-(6-azaspiro[2.5]octan-6-yl)benzamide], the results for the IC50 (in the data set on OVCAR-3 cells; in the data set with HT-29 cells; in data set [1]) were 14.7 nM, 3.9 nM and 145 nM, respectively.

For `CCS(=O)(=O)Nc1ccc(C(=O)Nc2ccc(OC)c(-c3ccc(F)cn3)c2)c(N2CCC3(CC2)CC3)c1` [Example 16, 4-(ethylsulfonamido)-N-(3-(5-fluoropyridine-2-yl)-4-methoxyphenyl)-2-(6-azaspiro [2.5]octan-6-yl) benzamide], the IC50 with OVCAR-3 cells turned out to be 4.5 nM; with HT-29 cells, 27.1 nM; in data set [1], 185 nM.
